Measured values reported in patent publication EP2209388B1, “SACRIFICIAL ANTIOXIDANT” (Borregaard AS, priority 2007, dated 2009).

How the values were obtained:
[1] = Autoxidation of rosmarinic acid with oxygen at 65°C with/without lignosulfonate (Example 3), reversed-phase HPLC-UV 280 nm; assay type: physicochemical; set-up: unit not given here
Source text: The combined effect of lignosulfonate was in addition shown in autoxidation experiments using two different lignosulfonates and rosmarinic acid as a representative for a different antioxidant. […] In parallel the same concentration of antioxidant, rosmarinic acid 1%, was supplemented with lignosulfonate. The tested lignins were a sodium lignosulfonate (LS 1) and a calcium lignosulfonate (LS 2), both added in the same amounts based on dry content (17%). Samples were withdrawn daily and the amount of remaining antioxidant was chromatographically quantified. Reversed-phase HPLC with UV-detection at 280 nm was the method of choice for monitoring the positive effect of LS.

[2] = Peroxynitrite test (total antioxidant effect), antioxidant screening; assay type: biochemical; conditions: comparison in words of the scores of table 3
Source text: To assess and verify the effect of lignosulfonate as antioxidant several lignosulfonic samples have been tested in different antioxidant screenings. Table 3. Samples tested for antioxidant effect. Five types of lignosulfonates were investigated; sodium lignosulfonate, a desulfonated oxidized lignosulfonate, and three fractions of a sodium lignosulfonate; low, medium and high molecular weight. […] The desulfonated oxidized lignosulfonate had the best antioxidant effect compared to the sodium lignosulfonate samples. […] As a comparison the synthetic antioxidant Ethoxyquin, gave the highest score in the test.

Row | Structure (SMILES) | Autoxidation of rosmarinic acid (amount of remaining antioxidant) ([1]; Day 0, rosmarinic acid 1%, lignosulfonate 17% dry content) | Autoxidation of rosmarinic acid (amount of remaining antioxidant) ([1]; Day 1) | Autoxidation of rosmarinic acid (amount of remaining antioxidant) ([1]; Day 2) | Autoxidation of rosmarinic acid (amount of remaining antioxidant) ([1]; Day 3) | Autoxidation of rosmarinic acid (amount of remaining antioxidant) ([1]; Day 4) | Autoxidation of rosmarinic acid (amount of remaining antioxidant) ([1]; Day 4, listed as rosmarinic acid) | antioxidant effect [2]
1 | O=C(/C=C/c1ccc(O)c(O)c1)O[C@H](Cc1ccc(O)c(O)c1)C(=O)O [Rosmarinic acid] | 100 | 72 | 45 | 11 | 2 | completely degraded | –
2 | Cc1cc(C(C)(C)C)c(O)c(C(C)(C)C)c1 [BHT, 2,6-di-tert-butyl-4-methylphenol] | – | – | – | – | – | – | scored lowest
3 | CCOc1ccc2c(c1)C(C)=CC(C)(C)N2 [Ethoxyquin, 1,2-dihydro-6-etoxy-2,2,4-trimetylquinoline] | – | – | – | – | – | – | highest score
